# Laboratory results as given in US8399465B2, “Compounds with two fused bicyclic heteroaryl moieties as modulators of leukotriene A4 hydrolase” (Janssen Pharmaceutica NV, priority 2009, dated 2013).
# Structures can show the parent of a compound that is named as a salt. Where two headings read alike, the source gives them in different places.
# Experiments:
# [1] = target: T1, recombinant human LTA4 hydrolase (rhLTA4H) (Homo sapiens, UniProt P09960); experiment: Recombinant human LTA4 hydrolase assay for LTA4 hydrolase inhibitor activity; assay type: biochemical; conditions: rhLTA4H, LTB4 by immunoassay; single determination or average of two or more; mark after value = form tested: ′ free base, ″ hydrochloride, ^ formate; read-out: IC50
# T1 construct: made in house; host or cells: Spodoptera frugiperda (Sf-9) cells, baculovirus (pFastBac1)
# T1 sequence (P09960 1-611): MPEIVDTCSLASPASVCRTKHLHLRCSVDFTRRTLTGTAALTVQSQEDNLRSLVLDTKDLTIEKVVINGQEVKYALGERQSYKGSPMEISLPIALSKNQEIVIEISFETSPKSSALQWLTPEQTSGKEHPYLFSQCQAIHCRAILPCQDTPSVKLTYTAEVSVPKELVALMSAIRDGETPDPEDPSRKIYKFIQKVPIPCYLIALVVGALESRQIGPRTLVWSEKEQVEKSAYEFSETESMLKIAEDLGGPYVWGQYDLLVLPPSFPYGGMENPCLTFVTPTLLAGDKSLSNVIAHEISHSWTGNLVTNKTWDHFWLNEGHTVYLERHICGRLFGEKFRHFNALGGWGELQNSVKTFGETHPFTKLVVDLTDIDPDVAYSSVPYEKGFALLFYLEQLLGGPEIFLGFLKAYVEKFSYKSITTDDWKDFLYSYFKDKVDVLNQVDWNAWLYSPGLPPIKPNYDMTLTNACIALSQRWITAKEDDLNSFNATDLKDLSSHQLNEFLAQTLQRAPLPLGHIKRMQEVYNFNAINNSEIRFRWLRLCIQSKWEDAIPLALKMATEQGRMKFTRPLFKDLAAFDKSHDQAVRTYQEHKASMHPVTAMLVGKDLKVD
# Method in brief: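 LTB4 formation, measured by enzyme immunoassay, was the read-out. The enzyme, recombinant human LTA4H expressed in Sf-9 insect cells (10 ng per reaction), was exposed to compound for 10 min at room temperature before hydrolysed-ester LTA4 substrate was added for 30 min. Enzyme-free negatives were included.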
# [2] = tested on: LTB4 production in murine blood (LTA4H); experiment: LTB4 production by calcium ionophore-stimulated murine blood for LTA4H inhibitor activity; assay type: cell-based, CD-1 mice; conditions: Mus musculus
# Method in brief: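 LTB4 was measured by ELISA in supernatants after calcium ionophore A23187 stimulation (final 7 μg/mL, 30 min, 37° C) of CD-1 mouse blood collected on heparin. Compound was preincubated with the blood for 15 min beforehand. Values come from one determination or average several.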
# [3] = murine blood diluted 1 in 15, A23187 stimulated, single determination or average, mark after value = form tested: ′ free base, ″ hydrochloride, ^ formate, read-out: IC50
IC50 [1],"IC50 [2, 3]",SMILES,IC50 [2]
0.003 µM,0.129 µM,"CC(=O)N1C[C@@H]2C[C@H]1CN2Cc1c[nH]c2cc(Oc3nc4ccccc4s3)ccc12 [Example 55, (1S,4S)-1-{5-[6-(Benzothiazol-2-yloxy)-1H-indol-3-ylmethyl]-2,5-diaza-bicyclo[2.2.1]hept-2-yl}-ethanone]",
0.015 µM,0.667 µM,"O=C(O)CC1CCN(Cc2c[nH]c3cc(Oc4nc5ccccc5s4)ccc23)CC1 [Example 46, {1-[6-(Benzothiazol-2-yloxy)-1H-indol-3-ylmethyl]-piperidin-4-yl}-acetic acid]",
0.019 µM,0.136 µM,"NC(=O)[C@H]1CCCN(Cc2c[nH]c3cc(Oc4nc5ccccc5s4)ccc23)C1 [Example 27, (3S)-1-[6-(Benzothiazol-2-yloxy)-1H-indol-3-ylmethyl]-piperidine-3-carboxylic acid amide]",
0.039 µM,0.26 µM,"NC(=O)N1CC2CN(Cc3cc4ccc(Oc5nc6ncccc6s5)cc4o3)CC2C1 (centres unmarked) [Example 194, 5-[6-(Thiazolo[4,5-b]pyridin-2-yloxy)-benzofuran-2-ylmethyl]-hexahydro-pyrrolo[3,4-c]pyrrole-2-carboxylic acid amide]",
< 0.001 µM,0.027 µM,"c1cnc2nc(Oc3ccc4c(CN5CCSCC5)c[nH]c4c3)sc2c1 [Example 42, 2-(3-Thiomorpholin-4-ylmethyl-1H-indol-6-yloxy)-thiazolo[4,5-b]pyridine]",
0.01 µM,0.13 µM,"c1ccc(C2CCN(Cc3coc4cc(Oc5nc6ncccc6s5)ccc34)CC2)cc1 [Example 280, 2-[3-(4-Phenyl-piperidin-1-ylmethyl)-benzofuran-6-yloxy]-thiazolo[4,5-b]pyridine formate]",
0.009 µM,0.069 µM,"NC(=O)N1CC2CN(Cc3coc4cc(Oc5nc6ncccc6s5)ccc34)CC2C1 (centres unmarked) [Example 161, 5-[6-(Thiazolo[4,5-b]pyridin-2-yloxy)-benzofuran-3-ylmethyl]-hexahydro-pyrrolo[3,4-c]pyrrole-2-carboxylic acid amide]",
0.006 µM,0.022 µM,"CCN(C(C)=O)C1CCN(Cc2coc3cc(Oc4nc5ncccc5s4)ccc23)CC1 [Example 353, N-Ethyl-N-{1-[6-(thiazolo[4,5-b]pyridin-2-yloxy)-benzofuran-3-ylmethyl]-piperidin-4-yl}-acetamide]",
0.028 µM,0.077 µM,"CC1CC(C)CN(Cc2coc3cc(Oc4nc5ncccc5s4)ccc23)C1 (centres unmarked) [Example 281, 2-[3-(3,5-Dimethyl-piperidin-1-ylmethyl)-benzofuran-6-yloxy]-thiazolo[4,5-b]pyridine formate]",
0.019 µM,0.17 µM,"c1ccc(N2CCN(Cc3coc4cc(Oc5nc6ncccc6s5)ccc34)CC2)nc1 [Example 288, 2-[3-(4-Pyridin-2-yl-piperazin-1-ylmethyl)-benzofuran-6-yloxy]-thiazolo[4,5-b]pyridine formate]",
0.011 µM,0.015 µM,"CCCNCc1coc2cc(Oc3nc4ncccc4s3)ccc12 [Example 303, Propyl-[6-(thiazolo[4,5-b]pyridin-2-yloxy)-benzofuran-3-ylmethyl]-amine formate]",
0.012 µM,0.054 µM,"O=C(O)C1CCN(Cc2coc3cc(Oc4nc5ncccc5s4)ccc23)CC1 [Example 249, 1-[6-(Thiazolo[4,5-b]pyridin-2-yloxy)-benzofuran-3-ylmethyl]-piperidine-4-carboxylic acid]",
0.007 µM,0.035 µM,"CC(=O)N1CCN(C(=O)c2coc3cc(Oc4nc5ncccc5s4)ccc23)CC1 [Example 380, 1-{4-[6-(Thiazolo[4,5-b]pyridin-2-yloxy)-benzofuran-3-carbonyl]-piperazin-1-yl}-ethanone]",
0.003 µM,0.017 µM,"c1cnc2nc(Oc3ccc4c(CN5CCCCC5)c[nH]c4c3)sc2c1 [Example 16, 2-(3-Piperidin-1-ylmethyl-1H-indol-6-yloxy)-thiazolo[4,5-b]pyridine]",
0.021 µM,0.87 µM,"O=C(O)C1CCCN(Cc2c[nH]c3cc(Oc4nc5ccccc5s4)ccc23)C1 (centres unmarked) [Example 47, 1-[6-(Benzothiazol-2-yloxy)-1H-indol-3-ylmethyl]-piperidine-3-carboxylic acid]",
0.005 µM,0.161 µM,"NC(=O)C1CCN(Cc2c[nH]c3cc(Oc4nc5ccccc5s4)ccc23)CC1 [Example 21, 1-[6-(Benzothiazol-2-yloxy)-1H-indol-3-ylmethyl]-piperidine-4-carboxylic acid amide]",
0.007 µM,0.188 µM,"CN1CCN(C(=O)C2CCN(Cc3c[nH]c4cc(Oc5nc6ccccc6s5)ccc34)CC2)CC1 [Example 26, {1-[6-(Benzothiazol-2-yloxy)-1H-indol-3-ylmethyl]-piperidin-4-yl}-(4-methyl-piperazin-1-yl)-methanone]",
0.014 µM,0.09 µM,"CS(=O)(=O)N1CCC(N(Cc2coc3cc(Oc4nc5ncccc5s4)ccc23)C2CC2)CC1 [Example 246, Cyclopropyl-(1-methanesulfonyl-piperidin-4-yl)-[6-(thiazolo[4,5-b]pyridin-2-yloxy)-benzofuran-3-ylmethyl]-amine]",
0.032 µM,0.068 µM,"NC(=O)N1CCC(N(Cc2coc3cc(Oc4nc5ncccc5s4)ccc23)C2CC2)CC1 [Example 242, 4-{Cyclopropyl-[6-(thiazolo[4,5-b]pyridin-2-yloxy)-benzofuran-3-ylmethyl]-amino}-piperidine-1-carboxylic acid amide]",
0.032 µM,0.4 µM,"O=C1Cc2ccc(Cl)cc2N1Cc1coc2cc(Oc3nc4ncccc4s3)ccc12 [Example 402, 6-Chloro-1-[6-(thiazolo[4,5-b]pyridin-2-yloxy)-benzofuran-3-ylmethyl]-1,3-dihydro-indol-2-one]",

SMILES,IC50 [1],"IC50 [2, 3]",IC50 [2]
"NC(=O)N1C[C@H]2CC[C@@H](C1)N2Cc1cc2cc(Oc3nc4ncccc4s3)ccc2o1 [Example 94, meso-8-[5-(Thiazolo[4,5-b]pyridin-2-yloxy)-benzofuran-2-ylmethyl]-3,8-diaza-bicyclo[3.2.1]octane-3-carboxylic acid amide]",0.102 µM,0.202 µM,
"c1cnc2nc(Oc3ccc4cc(CN5CCCCC5)oc4c3)sc2c1 [Example 192, 2-(2-Piperidin-1-ylmethyl-benzofuran-6-yloxy)-thiazolo[4,5-b]pyridine formate]",0.043 µM,,0.12 µM
"OC1(c2ccc(Cl)cc2)CCN(Cc2coc3cc(Oc4nc5ncccc5s4)ccc23)CC1 [Example 347, 4-(4-Chloro-phenyl)-1-[6-(thiazolo[4,5-b]pyridin-2-yloxy)-benzofuran-3-ylmethyl]-piperidin-4-ol]",0.024 µM,0.13 µM,
"CC(=O)N1[C@@H]2CC[C@H]1C[C@H](NCc1coc3cc(Oc4nc5ncccc5s4)ccc13)C2 [Example 333, meso-exo-1-(3-{[6-(Thiazolo[4,5-b]pyridin-2-yloxy)-benzofuran-3-ylmethyl]-amino}-8-aza-bicyclo[3.2.1]oct-8-yl)-ethanone formate]",0.006 µM,0.024 µM,
"CC(=O)N[C@H]1C[C@H]2CC[C@@H](C1)N2Cc1cc2cc(Oc3nc4ccccc4s3)ccc2o1 [Example 83, meso-endo-N-{8-[5-(Benzothiazol-2-yloxy)-benzofuran-2-ylmethyl]-8-aza-bicyclo[3.2.1]oct-3-yl}-acetamide formate]",0.07 µM,0.119 µM,
